For one test, the system named is TLR4. Briefly: TLR4 expression in SW480 cells by immunocytochemistry / confocal microscopy. It counts as cell-based, human. To be noted: LPS 4 hours then SPA4 1 hour, more pronounced with 100 μM. As for the experimental part:
Expression of TLR4: Next, the effect of SPA4 peptide on the expression of TLR4 in SW480 cells was investigated by immunocytochemistry and laser confocal microscopy. Briefly, about 2.5×10^4 cells were seeded in an 8-well chamber slide (Thermo Fisher Scientific, Rochester, N.Y.) in complete medium. The cells were treated with E. coli O111:B4-derived, highly-purified, low-protein LPS (100 ng/ml or 1.0 μg/ml; Calbiochem, CA) for 4 hours following 1 hour incubation with SPA4 peptide (1, 10 and 100 μM). The cells were fixed in 3.5% paraformaldehyde in Dulbecco's PBS (DPBS) and permeabilized with 0.05% saponin solution (Inaba et al. 1998). The wells were washed with DPBS supplemented with 1% FBS and 0.05% saponin, and stained with TLR4-specific antibody (1:50 dilution, Abcam, Mass.) and 10 μg/ml Alexa-fluor 488-labeled secondary anti-rabbit IgG antibody (Invitrogen-Molecular Probes, CA). After washing, the cells were stained with 100 nM rhodamin-phallodin (Cytoskeleton Inc, CO) and 1 μg/ml Hoechst 33342 dyes (Invitrogen-Molecular Probes, CA). Confocal microscopic images were acquired at the Imaging core facility of the Oklahoma Medical Research Foundation, Oklahoma City, using the Zeiss LSM-510 META laser scanning confocal microscope. Images were acquired with lens objective of 63× with the x/y stack sizes being 146.2 μm using band pass filter specifications at 435-485, 560-615 and 505-530.

The next test concerns IL-1β and IL-6. Kind of test: Expression of IL-1β and IL-6 in SW480 cell lysates by immunoblotting. It counts as cell-based, human. The procedure: Expression of IL-1β and IL-6: Two treatment models (post- and pre-LPS treatment) were utilized for assessing the effects of SPA4 peptide on LPS-induced cytokines: IL-1β and IL-6. Post-LPS treatment models (short-term and long-term) are described above. In pre-LPS treatment model, the SW480 cells were pretreated with SPA4 peptide (10 μM) for 2 hours, followed by LPS-challenge (1.0 μg/ml) for another 4 hours. The cell-lysates were prepared either in commercially available cell-culture lysis reagent (Promega, WI) or directly into SDS-PAGE sample buffer containing 50 mM dithiothreitol (Cell Signalling Technology, MA). Ten μg of cell-lysate proteins were separated on 4-20% Novex Tris-glycine gradient SDS-PAGE gel (Invitrogen, CA) or 10% separating-5% stacking acrylamide gel. The expression levels of cytokines were measured by immunoblotting as described above using 1:1000 diluted antibodies against IL-1β and IL-6. Both antibodies were purchased from Santacruz Biotech, CA.

A further test relates to SW480 cells. Briefly: Cell cycle analysis of SW480 cells by flow cytometry. In kind it is cell-based, human. To be noted: SPA4 10, 50 and 100 μM; over 40 h. As for the experimental part:
Cell cycle analysis: The effect of SPA4 peptide on cell cycle progression was studied by flow-cytometry. About 500,000 cells were seeded per well into 6 well plate. The cells were challenged with LPS (100 ng/ml) for 4 hours. After the completion of 4 hours LPS-challenge period, SPA4 peptide (10, 50 and 100 μM) was added to the cells. Cells were further incubated for 20 and 40 hours. Vehicle-treated cells were also included. After 20 and 40 hours of total incubation period, both adherent and non-adherent cells were collected and centrifuged at 260×g for 5 minutes. The supernatant was discarded and cell pellet was washed with DPBS (Invitrogen-Gibco, NY). The cells were fixed in 70% ice-cold ethanol on ice for 1 hour and stained with a buffer containing 200 μg/ml DNase-free RNase A (Sigma, St Louis, Mo.), 0.1% v/v Triton-X 100 and 20 μg/ml propidium iodide (Molecular Probes, Carlsbad, Calif.). The cells were incubated at 4° C. for 30 minutes in the dark, before measuring cell fluorescence using Becton Dickson FACS Calibur flow cytometer. The single cells were selected by gating out the aggregates and the percent number of cell populations in different cell cycle phases were calculated by de-convoluting the results ModFIT software (Verity software house, Topsham, Me.).

For the next test, the system named is NF-κB. Briefly: NF-κB luciferase reporter activity in LPS-challenged JAWS II dendritic cells. It counts as cell-based, mouse. The procedure:
At the molecular level, the effects of SPA4 peptide on LPS-induced NF-κB activity were studied in dendritic cells (JAWS II cells) co-transfected with NFκB luciferase reporter plasmid construct and dominant negative construct of MYD88 (an adaptor protein downstream of TLR4; MYD88DN). Briefly, JAWS II dendritic cells (0.5×10^6) were transfected with NF-κB luciferase reporter and/or MYD88DN using TransIT-TKO transfection reagent as described earlier (Awasthi S et al., 2003). After 20-24 hours of incubation, the transfected cells were challenged with LPS (100 ng/ml) for 4 hours and treated with SPA4 peptide (10 μM) for 1 hour. After the completion of 5 hours incubation, the cell lysates were prepared in cell lysis buffer and NF-κB-luciferase reporter activity was measured as per the manufacturer's instructions (Promega, WI).

From patent publication US8623832B2, “Peptide compositions that bind TLR-4” (The Board of Regents of the University of Oklahoma, priority 2011, dated 2014) come the findings set out here.

Where no end group is shown, it is not given here.

Take “GDFRYSDGTPVNYTNWYRGE [SPA4, GDFRYSDGT PVNYTNWYRGE]”: the “LPS-stimulated TLR4 expression” value in the test on TLR4 is listed as “reduced the LPS-stimulated TLR4 expression to basal level”. The “expression of IL-6 precursors or active form, short-term treatment model” value with IL-1β and IL-6 is “not significantly affected”. Besides, in the test on IL-1β and IL-6 (5 hours and 9 hours, dose-dependent), the “expression of low molecular weight precursors and active IL-1β, post-LPS treatment models” value was “significantly decreased”. For the same sequence, the “IL-6 expression, prolonged treatment” value in the test on IL-1β and IL-6 (6 hours or 9 hours in pre- and post-LPS-treatment models) is given as “significantly inhibited”. For the same sequence, in the test on IL-1β and IL-6 (SPA4 10 μM 2 hours then LPS 1.0 μg/ml 4 hours), the “expression of IL-1β precursor and active forms, pre-LPS treatment model” value is given as “significant decrease”. The “expression of IL-1β precursor form 1” value with IL-1β and IL-6 (compared with LPS-treated cells) is “increased or unchanged”. Further, the “cell cycle progression of SW480 cells” value in the test with SW480 cells is listed as “did not affect”. For the same sequence, in the test on NF-κB (JAWS II co-transfected with MYD88 dominant negative), the “MYD88-independent NF-κB activity” value is reported as “does not affect”. In addition, the “LPS-induced NF-κB activity in dendritic cells” value in the test on NF-κB (JAWS II, LPS 100 ng/ml 4 hours, SPA4 10 μM 1 hour) was “inhibits”.
